The record followed here is patent publication US7875261B2, “Fluorinated resorufin compounds and their application” (Life Technologies Corporation, priority 2003, dated 2011).

In series [1] the target is T1, horseradish peroxidase (HRP) (Armoracia rusticana, UniProt P00433).
T1 sequence (P00433 31-338): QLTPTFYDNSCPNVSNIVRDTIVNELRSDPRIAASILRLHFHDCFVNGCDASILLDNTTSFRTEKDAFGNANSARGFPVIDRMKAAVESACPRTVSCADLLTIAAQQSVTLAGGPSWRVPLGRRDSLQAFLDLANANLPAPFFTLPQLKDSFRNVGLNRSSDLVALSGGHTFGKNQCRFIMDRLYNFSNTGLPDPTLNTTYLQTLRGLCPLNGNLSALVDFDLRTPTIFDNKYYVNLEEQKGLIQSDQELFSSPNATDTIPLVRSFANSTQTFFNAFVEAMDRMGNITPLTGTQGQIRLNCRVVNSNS
The series can be described thus: Detection of horseradish peroxidase activity at acidic pH. The class given is biochemical. The conditions noted are these: for Z-factor: pH 5.5, 50 μM H2O2, 60 minutes at 30° C.; for Lower limit of detection of HRP activity: pH 5.5, dye as reporting fluorogenic substrate. How it is done: A dilution series of horseradish peroxidase (HRP; EC 1.11.1.7) was prepared in 0.1 M sodium acetate, pH 5.5. The enzyme dilutions were added to a CoStar 96-well round bottom plate in 50 μL aliquots. Mixtures containing 100 μM hydrogen peroxide (H2O2), 0.1 M sodium acetate, pH 5.5, and 100 μM Amplex Red or 100 μM Compound 4 were prepared, and reactions were initiated by addition of 50 μL of reagent mixture to the enzyme dilution series. Reactions were done in triplicate, for 60 minutes at 30° C. Fluorescence was measured with a CytoFluor® Series 4000 Multi-Well Plate Reader (PerSeptive Biosystems, Framingham, Mass.), 530+/−12.5 nm excitation, 580+/−25 nm emission. The fluorescent signal was graphed as a function of HRP concentration (See, FIG. 9) and the Z-factor (Table 6) was calculated according to Zhang et al. (1999).

Series [2] deals with T2, Recombinant human cyclooxygenase-2 (COX-2) (Homo sapiens, UniProt P35354).
T2 construct: purchased Cayman Chemical
T2 sequence (P35354 18-604): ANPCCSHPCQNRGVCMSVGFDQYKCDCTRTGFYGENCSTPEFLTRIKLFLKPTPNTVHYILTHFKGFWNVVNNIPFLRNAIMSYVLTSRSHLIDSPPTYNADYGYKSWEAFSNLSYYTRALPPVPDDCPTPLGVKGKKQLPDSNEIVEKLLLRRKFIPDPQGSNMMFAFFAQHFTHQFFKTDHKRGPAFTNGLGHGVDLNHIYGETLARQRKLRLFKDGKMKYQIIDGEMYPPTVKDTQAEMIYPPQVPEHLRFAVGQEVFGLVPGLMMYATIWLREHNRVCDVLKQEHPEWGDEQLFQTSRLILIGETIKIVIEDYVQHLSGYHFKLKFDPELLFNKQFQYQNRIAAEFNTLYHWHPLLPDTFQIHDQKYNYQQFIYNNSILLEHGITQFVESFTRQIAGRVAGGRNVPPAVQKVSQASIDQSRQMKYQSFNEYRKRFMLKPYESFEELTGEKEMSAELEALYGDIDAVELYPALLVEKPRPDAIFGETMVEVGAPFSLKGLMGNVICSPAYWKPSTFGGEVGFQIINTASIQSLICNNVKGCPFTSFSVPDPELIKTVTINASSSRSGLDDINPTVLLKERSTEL
The series can be described thus: Cyclooxygenase-2 assay. The conditions noted are these: 50 μM dye, 100 μM arachidonic acid, 2 μM hemin, 37° C., thirty minutes, FIG. 2. The class given is biochemical. As for the experimental part:
Amplex Red (Molecular Probes, Inc. A-12222) and Compound 4 were resuspended to 10 mM in dry DMSO. Recombinant human cyclooxygenase-2 (COX-2, from Cayman Chemical) was serially diluted (in triplicate for each dye) two-fold in a 96-well microplate in 50 μl of 100 mM Tris, pH 8.0. 10 μl of 20 μM hemin (a COX-2 cofactor) in 100 mM Tris, pH 8.0 was added to all wells. After a five minute incubation at room temperature to allow the hemin to interact with the COX-2 enzyme, 40 μl of either 125 μM Amplex Red+250 μM arachidonic acid or 125 μM Compound 4+250 μM arachidonic acid in 100 mM Tris, pH 8.0 was added to all wells. The final reagent concentrations in the wells was zero to 50 Units/ml COX-2, 2 μM hemin, 100 μM arachidonic acid, and 50 μM Amplex Red reagent or Compound 4 in 100 μl of 100 mM Tris, pH 8.0.
(§1) The resulting reactions were incubated at 37° C. in the dark for thirty minutes. At that point, the resulting fluorescence was measured on a PerSeptive Biosystems CytoFluor 4000 microtiter plate reader (Framingham, Mass.). The excitation filter was 530 nm (+/−12.5 nm) and the emission filter 590 nm (+/−17.5 nm), with a gain setting of 40.

For a further series, the target named is T3, Bovine hemoglobin (Bos taurus, UniProt P01966+P02070).
T3 construct: purchased Sigma H-2500
T3 sequence (P01966 2-142 limits assumed): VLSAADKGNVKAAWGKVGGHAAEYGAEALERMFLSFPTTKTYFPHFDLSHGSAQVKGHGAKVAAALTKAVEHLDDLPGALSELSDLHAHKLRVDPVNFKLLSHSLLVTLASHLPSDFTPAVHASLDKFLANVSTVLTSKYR
T3 sequence (P02070 whole entry): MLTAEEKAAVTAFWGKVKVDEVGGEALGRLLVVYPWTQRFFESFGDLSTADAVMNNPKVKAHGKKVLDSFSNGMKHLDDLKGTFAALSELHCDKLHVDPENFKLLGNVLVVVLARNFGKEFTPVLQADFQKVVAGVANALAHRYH
The series can be described thus: Hemoglobin assay. It counts as biochemical. The conditions noted are these: 50 μM dye, 50 μM H2O2, 37° C., thirty minutes, FIG. 3. As for the experimental part: Amplex Red (Molecular Probes Inc. A-12222) and Compound 4 were each resuspended to 10 mM in dry DMSO. Bovine hemoglobin (Sigma, catalog #H-2500) was serially diluted (in triplicate for each dye) two-fold in a 96-well microplate in 50 μl of 50 mM Tris, pH 7.5. 50 μl of either 100 μM Amplex Red+100 μM H2O2 or 100 μM Compound 4+100 μM H2O2 in 50 mM Tris, pH 7.5 was added to all wells. The final reagent concentrations in the wells was zero to 2000 ng/ml bovine hemoglobin, 50 μM H2O2, and 50 μM Amplex Red or Compound 4 in 100 μl of […], pH 7.5.
as §1

In a further series the target is T4, COX-2 (Mus musculus, UniProt Q05769).
T4 construct: RAW 264.7 mouse macrophage cells (ATCC # TIB-71) were grown overnight; endogenous in cells; host or cells: RAW 264.7 mouse macrophage cells (ATCC TIB-71), LPS-treated, sonicated lysate
T4 sequence (Q05769 18-604): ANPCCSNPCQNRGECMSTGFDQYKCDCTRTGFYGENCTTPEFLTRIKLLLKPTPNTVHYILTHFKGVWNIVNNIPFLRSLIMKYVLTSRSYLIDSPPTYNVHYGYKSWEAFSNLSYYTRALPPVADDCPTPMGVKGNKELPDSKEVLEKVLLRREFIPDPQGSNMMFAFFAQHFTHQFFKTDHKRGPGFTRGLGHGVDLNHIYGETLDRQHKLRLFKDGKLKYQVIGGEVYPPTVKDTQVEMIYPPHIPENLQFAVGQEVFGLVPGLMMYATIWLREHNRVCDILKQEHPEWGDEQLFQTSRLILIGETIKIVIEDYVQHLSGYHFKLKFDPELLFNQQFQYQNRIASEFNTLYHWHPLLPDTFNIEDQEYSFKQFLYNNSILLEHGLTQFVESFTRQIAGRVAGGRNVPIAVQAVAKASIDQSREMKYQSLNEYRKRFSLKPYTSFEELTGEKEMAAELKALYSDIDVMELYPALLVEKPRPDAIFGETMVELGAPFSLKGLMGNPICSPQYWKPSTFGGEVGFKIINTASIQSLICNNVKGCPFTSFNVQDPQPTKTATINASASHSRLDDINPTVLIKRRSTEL
As to the kind of experiment: Detection of LPS-induced COX-2 activity in RAW 264.7 cell lysate. It counts as biochemical. The conditions noted are these: 40 μM dye, 80 μM arachidonic acid, 200,000 lysed cell equivalents, 37° C., twenty minutes, FIG. 7.

The next series has as its target T5, Myeloperoxidase (Homo sapiens, UniProt P05164).
T5 construct: purchased Sigma M-6908
T5 sequence (P05164 49-745): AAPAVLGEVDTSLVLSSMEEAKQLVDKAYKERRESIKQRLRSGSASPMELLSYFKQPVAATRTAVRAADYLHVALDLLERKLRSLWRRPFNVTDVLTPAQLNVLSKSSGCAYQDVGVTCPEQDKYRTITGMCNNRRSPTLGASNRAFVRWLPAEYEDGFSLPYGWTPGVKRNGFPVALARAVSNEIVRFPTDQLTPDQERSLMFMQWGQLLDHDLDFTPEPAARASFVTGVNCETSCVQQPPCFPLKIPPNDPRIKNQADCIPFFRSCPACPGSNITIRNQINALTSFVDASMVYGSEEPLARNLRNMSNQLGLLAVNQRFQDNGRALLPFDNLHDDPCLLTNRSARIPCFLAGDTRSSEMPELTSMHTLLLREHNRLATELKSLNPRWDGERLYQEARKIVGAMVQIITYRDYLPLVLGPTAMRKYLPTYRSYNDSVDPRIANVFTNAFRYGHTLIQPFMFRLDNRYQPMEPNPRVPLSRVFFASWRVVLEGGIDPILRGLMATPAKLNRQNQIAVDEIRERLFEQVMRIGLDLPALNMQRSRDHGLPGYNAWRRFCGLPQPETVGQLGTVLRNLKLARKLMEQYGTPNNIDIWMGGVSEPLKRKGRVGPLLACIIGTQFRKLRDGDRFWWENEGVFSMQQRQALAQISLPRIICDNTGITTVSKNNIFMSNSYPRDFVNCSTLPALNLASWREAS
The series can be described thus: Detection of myeloperoxidase. The conditions noted are these: 125 μM Compound 4, 50 μM hydrogen peroxide, PBS, 37° C. The class given is biochemical. How it is done:
Myeloperoxidase (Sigma # M-6908) was diluted to 1 unit/mL using phosphate buffered saline (PBS, 50 mM sodium phosphate, pH 7.4, 150 mM sodium chloride). The solution was then serially diluted two fold using the same buffer. 50 μL of the preparations were added in a 96-well microplate (Nunc # 449824). 20 μL of 625 μM Compound 4 and 30 μl of 165 μM hydrogen peroxide (Aldrich # 323381) in PBS were added to all wells. The final reagent concentration in the wells was zero to 0.5 U/mL myeloperoxidase, 125 μM Compound 4 and 50 μM hydrogen peroxide in 100 μl of PBS.
The resulting reactions were incubated at 37° C. in a PerSeptive Biosystems CytoFluor 4000 microtiter plate reader (Framingham, Mass.). The excitation filter was 530 nm (+/−12.5 nm) and the emission filter 580 nm (+/−25 nm), with a gain setting of 35. Fluorescence was read every five minutes for up to 30 minutes.

Series [3] is described as follows: Photostability study (continuous irradiation in a spectrofluorimeter). It counts as physicochemical. The conditions noted are these: solutions matched by optical density 0.03 at 560 nm, aqueous buffer pH 9, continuous irradiation at 560 nm. As for the experimental part: For example, solutions of each were matched by optical density (0.03 at 560 nm in aqueous buffer at pH 9), then continuously irradiated in a spectrofluorimeter at 560 nm for 30 minutes. Over the duration of the experiment, resorufin photobleached to a greater extent than any of the fluorinated analogs.

For `CC(=O)N1c2ccc(O)cc2Oc2cc(O)ccc21` [Amplex Red, reference compound], the Z-factor in series [1] (HRP 0.016 units/mL) was 1.30; in series [1] (HRP 0.063 units/mL), 0.51; in series [1] (HRP 0.125 units/mL), 0.69; in series [1] (HRP 0.25 units/mL), 0.85. In series [1], the “Lower limit of detection of HRP activity” value is on record as 0.032 units/mL.
With `CC(=O)N1c2cc(F)c(O)cc2Oc2cc(O)c(F)cc21` [Compound 4, 2,8-Difluoro-10-acetyl-3,7-dihydroxyphenoxazine], the “Fluorescent signal compared with Amplex Red” value in series [2] was “greater fluorescent intensity signal”. Further, the “Fluorescence brightness compared with Amplex Red” value at Bovine hemoglobin was “brighter”. The “Relative fluorescent signal compared with Amplex Red” value on COX-2 is “stronger relative fluorescent signal”. Also, the Z-factor in series [1] (HRP 0.016 units/mL) was found to be 0.72; in series [1] (HRP 0.032 units/mL), 0.89; in series [1] (HRP 0.063 units/mL) it was 0.90; in series [1] (HRP 0.125 units/mL), 0.81; in series [1] (HRP 0.25 units/mL) it was 0.89. For the same compound, the “Signal strength and dynamic range compared with Amplex Red” value in series [1] (pH 5.5, FIG. 9) is “significantly greater”. Also, the “Lower limit of detection of HRP activity” value in series [1] is recorded as “less than 0.016 units/mL”. Moreover, the “Limit of detection of myeloperoxidase” value at Myeloperoxidase is “about 9.6 ng/mL”; on Myeloperoxidase (FIG. 10), 0.0078 U/mL.
Regarding `O=c1ccc2nc3cc(F)c(O)c(F)c3oc-2c1` [Compound 5], the “Fluorescence remaining after irradiation for 30 minutes at 560 nm” value in series [3] turned out to be 96%.
Same read-out and setting: the result for `O=c1ccc2nc3ccc(O)c(F)c3oc-2c1` [Compound 6] reads 97%; that for `O=c1ccc2nc3cc(F)c(O)cc3oc-2c1` [Compound 7], 94%.
Same read-out and setting: the result for `O=c1ccc2nc3c(F)cc(O)cc3oc-2c1` [Compound 8] reads 95%; that for `O=c1ccc2nc3c(F)c(F)c(O)c(F)c3oc-2c1` [Compound 9], 98%.
Regarding `O=c1ccc2nc3ccc(O)cc3oc-2c1` [resorufin], the “Fluorescence remaining after irradiation for 30 minutes at 560 nm” value in series [3] is given as 91%.
